Measurements as given in ChEMBL document CHEMBL5321246, “Aurones: A Promising Scaffold to Inhibit SARS-CoV-2 Replication” (J Nat Prod, 2023).

Test system: SARS-CoV-2
Experiment: Antiviral activity against SARS-CoV-2 infected in Vero E6 cells assessed as inhibition of viral replication preincubated with cells for 1 hr and subsequent viral infection for 2 hrs followed by replacement with fresh medium containing compounds and measured after 24 hrs by qRT-PCR analysis
Assay type: functional, organism-based
Settings: Severe acute respiratory syndrome coronavirus 2, Vero C1008

Structure (SMILES): O=c1c(O)c(-c2cc(O)c(O)c(O)c2)oc2cc(O)cc(O)c12 [MYRICETIN]
- EC50: 8 µM
